“Also recorded” adds a separate entry of the source.
Legend:
[1] = test system: B-cell neoplastic cell line RPMI 8226; assay: Inhibition of proliferation of RPMI cells; assay type: cell-based; details: RPMI cell viability, FIG. 1
Excerpt: The next set of experiments was designed to assess compounds that have low levels of brain penetration for the ability of the test compounds to inhibit cellular proliferation. An exemplary in vitro assay is to screen for the ability of the test compounds to inhibit proliferation of the B-cell neoplastic cell line RPMI 8226 (a plasmacytoma derived from a multiple myeloma patient (Matsuoka, et al., 1967, Proc. Soc. Exp. Biol. Med. 125: 1246-1250). However other cell line can be used such as, U266 (established from an IgE-secreting myeloma patient (Nilsson, et al., 1970, Clin. Exp. Immunol., 7: 477-489) and ARH77 (an EBV transformed plasma cell leukemia (Burk, et al., 1978, Cancer Res. 38: 2508-2513).
FIG. 1 is a graph depicting the effects on the test compounds on RPMI cell viability.

[2] = test system: rat model of collagen-induced arthritis; assay: Rat model of collagen-induced arthritis, ankle diameter; assay type: in vivo; details: for reduction of ankle diameter: 10 mg/kg ip daily, about 3 days, caliper measurement; for efficacy in reducing ankle diameter compared with Enbrel: rheumatoid arthritis rat model, versus Enbrel
Protocol: The next set of experiments was designed to test the ability of the compounds of the invention on a rat model of collagen-induced arthritis. Briefly, Female Lewis rats were immunized with bovine type 2 collagen 2 mg/mL in 0.01N HAc mixed 1:1 w/ FIA injected id 0.1 mL at each of three sites on back (Rosloniec, E. F., A. H. Kang, L. K. Myers, M. A. Cremer. 1996. Collagen-induced arthritis. R. Coico, and E. Shevach, eds. Current Protocols in Immunology 15.5.1. Weily & Sons, New York.).
FIG. 2 depicts a schematic of the collagen-induced arthritis protocol. Briefly, a test compound of the invention is delivered ip at 10 mg/kg daily, for about 3 days.
FIG. 4 depicts ICI 1260, 1259, 848, 849, 761, 715, and 847 with respect to Enbrel. Additional testing for the effectiveness of compounds ICI 1260, 1259, 848, 849, 761, 715, and 847 at various concentrations (10 mg/kg, 2 mg/kg, 0.4 mg/kg) were conducted, as illustrated in FIGS. 5A-5G. A dose response curve was constructed to illustrate the efficacy of the seven compounds (FIG. 6).

[3] = target: histamine type 1 receptor (Homo sapiens, UniProt P35367); assay: Binding to non-5-HT receptors: histamine type 1 receptor; details: FIG. 12
histamine type 1 receptor, sequence (P35367 whole entry): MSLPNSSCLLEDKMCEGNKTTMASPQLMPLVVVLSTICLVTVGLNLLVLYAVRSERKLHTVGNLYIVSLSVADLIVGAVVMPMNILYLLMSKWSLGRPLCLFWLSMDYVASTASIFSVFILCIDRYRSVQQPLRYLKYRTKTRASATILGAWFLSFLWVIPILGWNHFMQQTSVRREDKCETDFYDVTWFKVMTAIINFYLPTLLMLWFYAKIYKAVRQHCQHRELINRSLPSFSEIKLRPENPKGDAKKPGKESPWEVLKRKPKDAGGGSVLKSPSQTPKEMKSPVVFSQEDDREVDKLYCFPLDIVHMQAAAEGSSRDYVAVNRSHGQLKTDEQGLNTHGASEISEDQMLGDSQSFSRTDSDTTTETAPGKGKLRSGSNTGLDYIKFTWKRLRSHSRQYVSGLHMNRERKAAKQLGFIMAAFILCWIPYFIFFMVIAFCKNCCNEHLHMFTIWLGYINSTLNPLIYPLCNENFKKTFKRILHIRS
Protocol: (§1) The methods employed in this study have been adapted from the scientific literature to maximize reliability and reproducibility. Where presented, IC50 values were determined by a non-linear, least squares regression analysis using the DATA ANALYSIS TOOLBOX (MDL Information Systems, San Leandro, Calif., USA). Where inhibition constants (Ki) are presented, the Ki values were calculated using the equation of Cheng and Prusoff (Cheng, Y., Prusoff, W. H., Biochem. Pharmacol. 22:3099-3108, 1973) or equivalent using the observed IC50 of the tested compound, the concentration of ligand employed in the assay, and historical values for the KD of the ligand.
The next set of experiments was designed to assess the selective binding of the test compounds to non-5-HT receptors. The compounds tested are as follows: ICI-735, 848, 849, 1259, and 1260. […] It was also observed that the compounds that bound well to 5-HT4 receptor also bound well to histamine type 1 receptor.

MDR1-MDCK [4] = assay: MDR1-MDCK Permeability (potential to cross the blood-brain barrier); details: from A-B Papp and efflux ratio
Female Lewis rats = assay: Toxicity in Female Lewis rats; assay type: in vivo; details: 100 mg/kg ip, in comparison with PBS control
Protocol: The next set of experiments was designed to determine the toxicity of the compounds. Each compound was administered to Female Lewis rats at a dose of 100 mg/kg via ip administration.

5-HT1A receptor = target: T1, 5-HT1A receptor (Homo sapiens, UniProt P08908); assay: 5-HT1A receptor binding; details: versus fluphenazine (ICI-1175), FIG. 8
T1 sequence (P08908 1-422): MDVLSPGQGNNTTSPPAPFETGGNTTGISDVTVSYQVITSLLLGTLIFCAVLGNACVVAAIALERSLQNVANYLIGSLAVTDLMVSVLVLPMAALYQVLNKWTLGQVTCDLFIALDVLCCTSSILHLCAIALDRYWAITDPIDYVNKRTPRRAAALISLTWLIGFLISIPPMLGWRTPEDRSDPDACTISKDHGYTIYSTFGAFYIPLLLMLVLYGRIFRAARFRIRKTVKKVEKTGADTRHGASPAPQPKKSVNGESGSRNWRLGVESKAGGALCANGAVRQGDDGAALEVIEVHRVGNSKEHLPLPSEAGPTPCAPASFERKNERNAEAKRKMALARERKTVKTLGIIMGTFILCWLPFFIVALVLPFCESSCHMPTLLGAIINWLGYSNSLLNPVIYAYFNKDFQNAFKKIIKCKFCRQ
Protocol: as §1
(§2) The next set of experiments was designed to assess the selective binding of the test compounds to 5-HT receptors. ICI-848, ICI-1259, and ICI-1260 were tested against fluphenazine (ICI-1175) to determine selective binding to 5-HT receptors.

5-HT2A receptor = 5-HT2A receptor (Homo sapiens, UniProt P28223); assay: 5-HT2A receptor binding; details: versus fluphenazine (ICI-1175), FIG. 8
5-HT2A receptor, sequence (P28223 whole entry): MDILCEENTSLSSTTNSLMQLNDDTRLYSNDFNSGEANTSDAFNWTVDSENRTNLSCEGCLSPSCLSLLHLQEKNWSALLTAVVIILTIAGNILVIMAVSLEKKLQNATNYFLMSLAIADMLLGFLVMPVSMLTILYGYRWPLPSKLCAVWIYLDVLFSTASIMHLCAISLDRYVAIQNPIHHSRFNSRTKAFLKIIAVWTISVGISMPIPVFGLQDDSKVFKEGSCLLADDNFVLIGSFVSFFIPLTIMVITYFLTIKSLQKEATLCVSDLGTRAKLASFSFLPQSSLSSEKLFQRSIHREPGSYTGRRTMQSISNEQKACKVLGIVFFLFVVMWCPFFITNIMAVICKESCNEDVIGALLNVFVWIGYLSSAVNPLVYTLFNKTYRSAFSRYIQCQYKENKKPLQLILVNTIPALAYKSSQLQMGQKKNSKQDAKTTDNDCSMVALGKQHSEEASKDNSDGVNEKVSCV
Protocol: as §1
(§3) The experiments include contacting a serotonin type 1B, 2A, 2B, 2C, 3, 4, 6, and 7 receptor with a test compound and comparing the level of binding of serotonin or a control ligand with that serotonin type 1B, 2A, 2B, 2C, 3, 4, 6, and 7 receptor with the level of serotonin binding or control ligand binding with an otherwise identical serotonin type 1B, 2A, 2B, 2C, 3, 4, 6, and 7 receptor not contacted with the test compound. […] The skilled artisan would also appreciate, in view of the disclosure provided herein, that standard binding assays known in the art, or those to be developed in the future, can be used to assess the binding of serotonin or a control ligand with a serotonin type 1B. 2A, 2B, 2C, 3, 4, 6, and 7 receptor in the presence or absence of the test compound to identify a useful compound.
as §2

5-HT4 receptor = 5-HT4 receptor (Homo sapiens, UniProt Q13639); assay: 5-HT4 receptor binding; details: versus fluphenazine (ICI-1175), FIG. 8
5-HT4 receptor, sequence (Q13639 whole entry): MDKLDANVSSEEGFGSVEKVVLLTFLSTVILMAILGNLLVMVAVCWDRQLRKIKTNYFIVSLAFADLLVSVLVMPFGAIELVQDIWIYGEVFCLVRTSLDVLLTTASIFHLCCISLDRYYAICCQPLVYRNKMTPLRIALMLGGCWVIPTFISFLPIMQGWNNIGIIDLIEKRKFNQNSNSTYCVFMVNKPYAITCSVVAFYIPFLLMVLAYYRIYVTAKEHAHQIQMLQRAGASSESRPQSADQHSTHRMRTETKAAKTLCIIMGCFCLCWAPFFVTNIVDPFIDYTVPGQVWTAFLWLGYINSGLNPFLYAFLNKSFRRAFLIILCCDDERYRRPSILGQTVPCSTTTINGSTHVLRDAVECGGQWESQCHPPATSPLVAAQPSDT
Protocol: as §1, §3, §2
The next set of experiments was designed to assess the Ki values of the tested compounds.

MDR1-MDCK [5] = test system: MDR1-MDCK

| SMILES | ability to inhibit proliferation of RPMI cells [1] | reduction of ankle diameter ([2]; listed as ICI-849) | efficacy in reducing ankle diameter compared with Enbrel [2] | binding to histamine type 1 receptor [3] | Brain Penetration Classification (MDR1-MDCK [4]) | reduction of ankle diameter ([2]; listed as ICI-848) | toxicity (Female Lewis rats) | binding to 5-HT1A receptor compared to fluphenazine (5-HT1A receptor) | binding to 5-HT2A receptor compared to fluphenazine (5-HT2A receptor) | binding to 5-HT4 receptor compared to fluphenazine (5-HT4 receptor) | reduction of ankle diameter ([2]; listed as ICI-1259) | reduction of ankle diameter [2] | % Recovery A-B (MDR1-MDCK [5]) [%] | % Recovery B-A (MDR1-MDCK [5]) [%] | Papp A-B (MDR1-MDCK [5]) [×10⁻⁶ cm/s] | Papp B-A (MDR1-MDCK [5]) [×10⁻⁶ cm/s] | Efflux (MDR1-MDCK [5]; dog) | ability to inhibit proliferation of RPMI cells ([1]; listed as ICI-1260) | reduction of ankle diameter ([2]; listed as ICI-1260) |
| --- | --- | --- | --- | --- | --- | --- | --- | --- | --- | --- | --- | --- | --- | --- | --- | --- | --- | --- | --- |
| CNCC(=O)NCCN1CCC(CCCN2c3ccccc3Sc3ccc(C(F)(F)F)cc32)CC1 [ICI-00849] | able to inhibit the proliferation of RPMI cells | decrease the ankle diameter to a desirable level; also recorded: most desirable reduction of ankle diameter | more effective in reducing the ankle diameter than Enbrel | able to bind histamine type 1 receptor | Low (3) A-B Papp > 3.0 and Efflux Ratio > 10: Low) | – | – | – | – | – | – | – | – | – | – | – | – | – | – |
| NCC(=O)NCCN1CCC(CCCN2c3ccccc3Sc3ccc(C(F)(F)F)cc32)CC1 [ICI-00848] | able to inhibit the proliferation of RPMI cells | – | more effective in reducing the ankle diameter than Enbrel | able to bind histamine type 1 receptor | – | decrease the ankle diameter to a desirable level; also recorded: most desirable reduction of ankle diameter | not toxic | decreased binding | decreased binding | increased binding | – | – | – | – | – | – | – | – | – |
| CNCC(=O)NCCCN1CCC(CCCN2c3ccccc3Sc3ccc(C(F)(F)F)cc32)CC1 [ICI-01259] | able to inhibit the proliferation of RPMI cells | – | more effective in reducing the ankle diameter than Enbrel | able to bind histamine type 1 receptor | – | – | not toxic | decreased binding | decreased binding | increased binding | decrease the ankle diameter to a desirable level; also recorded: most desirable reduction of ankle diameter | – | – | – | – | – | – | – | – |
| NCC(=O)NCCN1CCN(CCCN2c3ccccc3Sc3ccc(C(F)(F)F)cc32)CC1 [ICI-00735] | – | – | – | able to bind histamine type 1 receptor | – | – | – | – | – | – | – | did not have a desirable reduction of ankle diameter | 47 | 33 | 0.23 | 28.6 | 124 | – | – |
| NCC(=O)NCCCN1CCC(CCCN2c3ccccc3Sc3ccc(C(F)(F)F)cc32)CC1 [ICI-01260] | – | – | more effective in reducing the ankle diameter than Enbrel | able to bind histamine type 1 receptor | – | – | not toxic | decreased binding | decreased binding | increased binding | – | – | – | – | – | – | – | able to inhibit the proliferation of RPMI cells | decrease the ankle diameter to a desirable level; also recorded: most desirable reduction of ankle diameter |

Reference: patent US20100035858A1, “Novel Compositions and Methods for Binding and Inhibiting 5-HT4 Receptor” (Immune Control, Inc., priority 2008, published 2010)
